“Also recorded” adds a separate entry of the source.
System: Male WistarF/Han (WF) rats
Assay: Response to novelty (Open field test), i.c.v. P32/98
Format: in vivo, rat
Experimental: Animals. Male WistarF/Han (WF) rats (Central Animal Laboratory, Hannover Medical School, Hannover, Germany, weighing 350-390 g, were housed in a sound-proof, temperature controlled (24.0±0.5° C.) room under specific pathogen free conditions with a 12/12 h dark/light cycle (lights on at 07.00 with illumination level of 80 Lux). Food (Altromin lab chow pellets) and tap water were available ad libitum. Under ketamine/xylasine (100/5 mg/kg, i.p.) anesthesia, the rats were fixed in a Kopf stereotaxic frame and implanted with cannulae (Plastic One, Inc., Roanoke, Va., USA) above the lateral ventricle. All research and animal care procedures were approved by the Lower Saxony district government (Hannover, Germany) and followed principles described in the European Community's Council Directive of 24 Nov. 1986 (86/609/EEC).
Surgery and i.c.v. application. For surgery, rats were anesthetized and prepared with i.c.v. cannulaes (coordinates: A: −0.7 mm caudal, L: 1.4 mm lateral to bregma; and V: 3.2 mm ventral to the skull surface; tooth bar +3.0 above ear bars) using standard stereotaxic procedures as described in detail elsewhere (von Hörsten et al., 1998a,b,c). […]
Response to novelty (Open field test). […] Spontaneous activity during a single continuous test session of 15 min was recorded using a video path analyzer system (E61-21 Video Path Analyser system, Coulbourn instruments, PA, U.S.A.). […] Furthermore, the total incidence of fecal boli was counted after each session and the incidence and duration (sec) of grooming behavior was simultaneously recorded from a video monitor by a person blind to the treatment of the animals (von Hörsten et al., 1998c).
Statistical analysis. For statistical analysis, behavioral raw data from every test minute were analyzed by two-way analyses of variance (ANOVA) for repeated measures (factors: treatment and time as a repeated measurement). Data obtained as totals from a session were analyzed by one-way (factor: treatment) ANOVA. […]

Structure (SMILES): CC[C@H](C)[C@H](N)C(=O)N1CCSC1 [P32/98]
- activity in the open field (distance traveled) (i.c.v. 0.05, 5, 500 nmol, 60 min before test, four consecutive minutes, vs aCSF): no effect on activity; also recorded: no significant effect
- time spent close to the wall in the open field (i.c.v. 0.05, 5, 500 nmol, 60 min before test, sum of four consecutive minutes, vs aCSF): dose-dependent reduction; also recorded: significant effect
- dosage already effective on time spent close to the wall (i.c.v., open field): 50 pmol
